Test results published in US20140230091A1, “MODIFIED PLANTS WITH INCREASED OIL CONTENT” (BROOKHAVEN SCIENCE ASSOCIATES, LLC, priority 2011, published 2014).
Marks after values point to notes of the source that are not given here.

Legend:
ACCase = ACCase enzyme assay on crude cell extracts; assay type: biochemical, Brassica napus
Experimental: All chemicals were obtained from Sigma and radioisotopes from American Radiolabeled Chemicals. ACCase activity was measured as the acetyl-CoA dependent incorporation of ^14C—NaHC03 into acid and stable products. Crude cell extracts were prepared by grinding fresh cells in 3 volumes (w/v) of 50 mM Tris-Cl, pH 7.5, 100 mM KCl, 5 mM MgCl2, 1 mM DTT, 0.1% TritonX-100, 10% glycerol, and plant protease inhibitor cocktail (Sigma). Homogenate was gently mixed on ice for 10 min and then centrifuged for 5 min at 3000 g. Desalting of extracts was done with PD-10 columns (GE Life Sciences). […] Reactions were initiated by the addition of 5 μlL cell extract and were stopped by the addition of 15 μL 12 N HCL. The contents were dried completely at 55° C. and the solids were resuspended in 30 μL water and counted by liquid scintillation spectroscopy. Minus acetyl-CoA controls were always included. Assays went for 30 min, except when measuring the effects of metabolites (10 min). Metabolites were added to the reaction immediately after cell extract to preserve labile thioester bonds. FFA stock solutions were made in ethanol and acyl-CoAs were suspended in water.

B. napus cells = assay: Quantification of free fatty acid, acyl-ACP and acyl-CoA pools in cells; assay type: cell-based, Brassica napus; details: after three hours of Tween-80 feeding
Experimental: Free fatty acids were extracted from tissue by quenching ˜300 mg of frozen cells in 2 mL boiling isopropanol for 5 min. Once cooled, 2 mL of 0.9% NaCl was added and lipids were extracted twice with 4 mL of hexane. Neutral lipids were separated by TLC and free fatty acids were scraped, made into FAMEs, and analyzed by GC-FID or GC-MS as described above. Acyl-CoAs were extracted from ˜15 mg FW of cells and quantified as previously described (Larson and Graham 2001, Plant J, 25, 115-125). Acyl-ACPs were extracted and quantified as previously described (Kopka, Ohlrogge and Jaworski 1995, Anal Biochem, 224, 51-60) with the following modifications: 1) Internal standards used were 11:0-CoA (Sigma) and 17:0—ACP made from Spinach ACP as previously described (Broadwater and Fox 1999, Protein Expr Purif, 15, 314-326). 2) Fully dissolving TCA precipitated proteins required three extractions with MOPS buffer rather than just one.
1986 Plant Physiol, 82, 771-779). Free fatty acids can be activated by esterification to CoA or ACP before being deposited in cellular lipids. Steady state pools acyl-ACP and acyl-CoA as well as free fatty acids (FFA) were measured in cells fed Tween-80. After three hours of feeding, 18:1 FFA appeared where there was none detected in untreated cells (FIG. 9a). […] In a separate experiment designed to distinguish the incorporation of fatty acids from Tween from secondary effects of feedback inhibition, FFA and acylACPs were analyzed in cells fed ^13C-oleoyl-Tween. […] First, the in vivo concentrations of these intermediates were calculated based on the range of values in FIG. 9 and the water content of the cells. […] However, considering that acyl-ACPs are restricted to the plastid, the volume of which in developing embryos was determined to be 10% of the cell (Mansfield and Briarty 1992, Can J Bot, 70, 151-164), the estimate increased to 5-10 μM. […] Thioesterase activity was measured using the same conditions as the ACCase assay. […]

Q: With Tween-80 as the substance, how does the ACCase activity (ACCase; crude extracts of cells fed 10 mM Tween-80 for three hours, mean of four repeats ± SD) read?
A: 1.73 ± 0.10^a nmol min^−1 mg^−1

Q: What about the “effect on ACCase activity” value (ACCase; included in assay of crude cell extract, FFA up to 10 μM) of the same substance?
A: no effect

Q: What about the “change in amount of 18:1-ACP and 18:1-CoA” value (B. napus cells) of the same substance?
A: double in amount
